The subject of this test is hyperlipidemia induced by the Triton WR 1339 in rats. The experiment in a line: Hypolipidemic activity: inhibition of hyperlipidemia induced by Triton WR 1339 in rats. In kind it is in vivo, rat. Conditions: male Fischer rats, Triton WR 1339 200 mg/Kg i.p., dose 56 μmol/kg ip, plasma after 24 hours. The protocol: The hypocholesterolemic and hypolipidemic activity of the synthesised compounds was performed by the inhibition of the hyperlipidemia induced by the Triton WR 1339 in rats. Triton WR 1339 as an intraperitoneal (i.p.) injection acts due to induction of HMG-CoA reductase. […] After 24 hours, blood was taken from the celiac aorta and collected to heparinised tubes.

SMILES strings stand for the structures. Marks after values point to notes of the source that are not given here.

For `CC(C)(Sc1cc(C(C)(C)C)c(O)c(C(C)(C)C)c1)Sc1cc(C(C)(C)C)c(O)c(C(C)(C)C)c1` [Probucol], the “Percent decrease compared to controls, LDL (plasma Low Density Lipoprotein)” value is reported as 18^NS %; the “Percent decrease compared to controls, TC (plasma Total Cholesterol)” value was 18* %; the “Percent decrease compared to controls, TG (plasma Triglyceride)” value is given as 11^NS %.

The values are drawn from US6693192B1, “Hypolipidemic and antioxidant morpholine derivatives” (Elpen S.A., priority 1999, dated 2004).
